The inhibition is the drop in the measured response relative to a control, in per cent.

Each structure is given as a SMILES string.

Experimental findings from article PMC8449129, “Single tracer-based protocol for broad-spectrum kinase profiling in live cells with NanoBRET” (STAR Protocols, 2021) are described below.

For assay [1], the target named is T1, AXL (Homo sapiens, UniProt P30530).
T1 construct: full-length kinase, C-terminal NanoLuc fusion, transfected HEK293 cells
The experiment in a line: NanoBRET target engagement, Tracer K10 displacement in live HEK293 cells. Type of assay: cell-based. To be noted: […] h, […] C, n = […]. In general terms: Bioluminescence resonance energy transfer reports proximity on the nanometre scale.

The target in assay [2] is TNK1 (Homo sapiens, UniProt Q13470). Nature of the assay: cell-based. Also noted: NanoBRET live-cell target engagement; % occupancy from displacement of tracer K10 on NanoLuc-kinase fusions, mean n=3. To be noted: HEK293, read-out: % inhibition. On the procedure:
(§1) • 18. Prepare 10× test compounds in OptiMEM • a. Dilute the test compound to 1000× in DMSO (or the test compound solvent). […] Add 10μL per well of 10× test compound or 10μL of the DMSO control to the 96-well plates containing cells with 1× tracer. Mix on orbital shaker for 15 s at 900 rpm. • 20. Incubate the plate at 37°C + 5% CO2 incubator for 2hr. Allow plate to cool to RT for ∼15 min, then proceed to NanoBRET^TM Assay section below. • 21. Immediately before the BRET measurements, prepare 3× Complete NanoBRET^TM Nano-Glo® Substrate in OptiMEM without serum or phenol red. […] Mix gently by inverting 5–10 times in a conical tube. (The final concentration of Extracellular NanoLuc inhibitor in the 3× solution is 60 μM, for a working concentration of 20 μM.) • a. Note: 3× solutions should be used within 1.5 h after preparation. • 22. […] Incubate 2–3 min at RT. Following addition of NanoBRET^TM Nano-Glo® Substrate, measure donor emission (e.g., 450 nm) and acceptor emission (e.g., 610 nm or 630 nm) using a NanoBRET™-compatible luminometer. Fractional occupancy Quantitation • 2. Determine Fractional Occupancy with the following equation; % Occupancy = [1 – (X – Z)/( Y – Z)]∗100 • Where: • X = BRET in the presence of the test compound and tracer, • Y = BRET in the presence of the 100% BRET Control (Tracer + DMSO) • Z = BRET for the Zero BRET Control, e.g., • a. BRET from the NanoLuc Control Vector • b. BRET from Kinase/NanoLuc fusion + saturating dose of control test compound.

The target in assay [3] is PLK2 (Homo sapiens, UniProt Q9NYY3). The experiment in a line: cell-based. The conditions noted are these: HEK293, read-out: % inhibition. Also on record: NanoBRET live-cell target engagement; % occupancy from displacement of tracer K10 on NanoLuc-kinase fusions, mean n=3. Here is the method: as §1
Assay [4] addresses TNK2 (Homo sapiens, UniProt Q07912). Nature of the assay: cell-based. Also noted: NanoBRET live-cell target engagement; % occupancy from displacement of tracer K10 on NanoLuc-kinase fusions, mean n=3. To be noted: HEK293, read-out: % inhibition. On the procedure:
as §1

In assay [5] the target is TLK2 (Homo sapiens, UniProt Q86UE8). The experiment in a line: cell-based. Also on record: NanoBRET live-cell target engagement; % occupancy from displacement of tracer K10 on NanoLuc-kinase fusions, mean n=3. The conditions noted are these: HEK293, read-out: % inhibition. Here is the method:
as §1

Assay [6] concerns the target FLT3 (Homo sapiens, UniProt P36888). Nature of the assay: cell-based. Also noted: NanoBRET live-cell target engagement; % occupancy from displacement of tracer K10 on NanoLuc-kinase fusions, mean n=3. To be noted: HEK293, read-out: % inhibition. On the procedure: as §1
The target in assay [7] is MAP3K11 (Homo sapiens, UniProt Q16584). Nature of the assay: cell-based. Also noted: NanoBRET live-cell target engagement; % occupancy from displacement of tracer K10 on NanoLuc-kinase fusions, mean n=3. The conditions noted are these: HEK293, read-out: % inhibition. On the procedure: as §1
Assay [8] concerns the target CSNK2A1 (Homo sapiens, UniProt P68400). Nature of the assay: cell-based. Also on record: NanoBRET live-cell target engagement; % occupancy from displacement of tracer K10 on NanoLuc-kinase fusions, mean n=3. To be noted: HEK293, read-out: % inhibition. Here is the method:
as §1

In assay [9] the target is FYN (Homo sapiens, UniProt P06241). Nature of the assay: cell-based. Also noted: NanoBRET live-cell target engagement; % occupancy from displacement of tracer K10 on NanoLuc-kinase fusions, mean n=3. The conditions noted are these: HEK293, read-out: % inhibition. On the procedure:
as §1

In assay [10] the target is MAPK11 (Homo sapiens, UniProt Q15759). The experiment in a line: cell-based. The conditions noted are these: HEK293, read-out: % inhibition. Also on record: NanoBRET live-cell target engagement; % occupancy from displacement of tracer K10 on NanoLuc-kinase fusions, mean n=3. On the procedure:
as §1

Assay [11] addresses PRKAA1 (Homo sapiens, UniProt Q13131). The experiment in a line: cell-based. Also on record: NanoBRET live-cell target engagement; % occupancy from displacement of tracer K10 on NanoLuc-kinase fusions, mean n=3. The conditions noted are these: HEK293, read-out: % inhibition. On the procedure:
as §1

In assay [12] the target is HIPK3 (Homo sapiens, UniProt Q9H422). The experiment in a line: cell-based. Also noted: NanoBRET live-cell target engagement; % occupancy from displacement of tracer K10 on NanoLuc-kinase fusions, mean n=3. The conditions noted are these: HEK293, read-out: % inhibition. Here is the method:
as §1

Assay [13] concerns the target MAST4 (Homo sapiens, UniProt O15021). Nature of the assay: cell-based. Also on record: NanoBRET live-cell target engagement; % occupancy from displacement of tracer K10 on NanoLuc-kinase fusions, mean n=3. To be noted: HEK293, read-out: % inhibition. On the procedure:
as §1

Assay [14] addresses CDK9 (Homo sapiens, UniProt P50750). The experiment in a line: cell-based. Also on record: NanoBRET live-cell target engagement; % occupancy from displacement of tracer K10 on NanoLuc-kinase fusions, mean n=3. To be noted: HEK293, read-out: % inhibition. On the procedure: as §1
Assay [15] has as its target SRMS (Homo sapiens, UniProt Q9H3Y6). The experiment in a line: cell-based. Also on record: NanoBRET live-cell target engagement; % occupancy from displacement of tracer K10 on NanoLuc-kinase fusions, mean n=3. To be noted: HEK293, read-out: % inhibition. Here is the method: as §1
Assay [16] has as its target TLK1 (Homo sapiens, UniProt Q9UKI8). Nature of the assay: cell-based. Also noted: NanoBRET live-cell target engagement; % occupancy from displacement of tracer K10 on NanoLuc-kinase fusions, mean n=3. The conditions noted are these: HEK293, read-out: % inhibition. On the procedure: as §1
Assay [17] has as its target CLK2 (Homo sapiens, UniProt P49760). The experiment in a line: cell-based. To be noted: HEK293, read-out: % inhibition. Also noted: NanoBRET live-cell target engagement; % occupancy from displacement of tracer K10 on NanoLuc-kinase fusions, mean n=3. On the procedure: as §1
Assay [18] concerns the target T2, NTRK2 (Homo sapiens, UniProt Q16620).
T2 construct: full-length kinase, C-terminal NanoLuc fusion, transfected HEK293 cells
Nature of the assay: NanoBRET target engagement, Tracer K10 displacement in live HEK293 cells. Type of assay: cell-based. To be noted: […] h, […] C, n = […].

Assay [19] deals with T3, SBK3 (Homo sapiens, UniProt P0C264).
T3 construct: full-length kinase, N-terminal NanoLuc fusion, transfected HEK293 cells
The description is as above. Type of assay: cell-based. The conditions noted are these: […] h, […] C, n = […].
Description: NanoBRET target engagement, Tracer K10 displacement in live HEK293 cells on SBK3

T3 sequence (P0C264 whole entry, the tested form may be a part): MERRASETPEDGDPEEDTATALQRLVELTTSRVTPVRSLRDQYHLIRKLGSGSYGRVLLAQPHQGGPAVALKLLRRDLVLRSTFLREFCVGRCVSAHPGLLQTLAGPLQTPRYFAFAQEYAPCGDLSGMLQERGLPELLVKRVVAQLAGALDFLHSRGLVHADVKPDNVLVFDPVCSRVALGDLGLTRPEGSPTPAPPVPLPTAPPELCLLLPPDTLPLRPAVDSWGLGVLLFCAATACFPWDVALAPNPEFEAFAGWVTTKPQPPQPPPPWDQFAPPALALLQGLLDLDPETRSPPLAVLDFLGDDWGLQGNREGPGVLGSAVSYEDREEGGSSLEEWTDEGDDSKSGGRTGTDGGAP
CDK9, sequence (P50750 whole entry, the tested form may be a part): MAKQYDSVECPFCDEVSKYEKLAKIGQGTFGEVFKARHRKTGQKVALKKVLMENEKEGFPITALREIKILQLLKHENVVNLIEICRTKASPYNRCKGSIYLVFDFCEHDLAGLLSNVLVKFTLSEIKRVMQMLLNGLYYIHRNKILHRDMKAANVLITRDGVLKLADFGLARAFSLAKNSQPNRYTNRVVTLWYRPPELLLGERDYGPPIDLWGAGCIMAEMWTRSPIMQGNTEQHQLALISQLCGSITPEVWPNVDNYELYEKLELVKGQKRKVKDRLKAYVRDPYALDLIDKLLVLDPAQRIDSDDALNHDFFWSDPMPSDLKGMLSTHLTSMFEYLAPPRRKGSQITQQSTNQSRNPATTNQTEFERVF
CSNK2A1, sequence (P68400 whole entry, the tested form may be a part): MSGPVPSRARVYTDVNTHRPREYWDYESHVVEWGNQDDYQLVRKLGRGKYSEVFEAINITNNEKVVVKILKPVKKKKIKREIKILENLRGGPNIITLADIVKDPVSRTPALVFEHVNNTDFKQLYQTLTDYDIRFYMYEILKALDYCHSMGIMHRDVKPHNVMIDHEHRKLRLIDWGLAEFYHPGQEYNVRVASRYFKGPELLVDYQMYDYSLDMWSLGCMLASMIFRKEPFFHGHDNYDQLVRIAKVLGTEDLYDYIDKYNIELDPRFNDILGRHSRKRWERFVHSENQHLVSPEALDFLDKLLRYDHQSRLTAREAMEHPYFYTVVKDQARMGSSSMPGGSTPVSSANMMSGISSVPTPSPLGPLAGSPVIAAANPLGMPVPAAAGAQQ
TNK2, sequence (Q07912 whole entry, the tested form may be a part): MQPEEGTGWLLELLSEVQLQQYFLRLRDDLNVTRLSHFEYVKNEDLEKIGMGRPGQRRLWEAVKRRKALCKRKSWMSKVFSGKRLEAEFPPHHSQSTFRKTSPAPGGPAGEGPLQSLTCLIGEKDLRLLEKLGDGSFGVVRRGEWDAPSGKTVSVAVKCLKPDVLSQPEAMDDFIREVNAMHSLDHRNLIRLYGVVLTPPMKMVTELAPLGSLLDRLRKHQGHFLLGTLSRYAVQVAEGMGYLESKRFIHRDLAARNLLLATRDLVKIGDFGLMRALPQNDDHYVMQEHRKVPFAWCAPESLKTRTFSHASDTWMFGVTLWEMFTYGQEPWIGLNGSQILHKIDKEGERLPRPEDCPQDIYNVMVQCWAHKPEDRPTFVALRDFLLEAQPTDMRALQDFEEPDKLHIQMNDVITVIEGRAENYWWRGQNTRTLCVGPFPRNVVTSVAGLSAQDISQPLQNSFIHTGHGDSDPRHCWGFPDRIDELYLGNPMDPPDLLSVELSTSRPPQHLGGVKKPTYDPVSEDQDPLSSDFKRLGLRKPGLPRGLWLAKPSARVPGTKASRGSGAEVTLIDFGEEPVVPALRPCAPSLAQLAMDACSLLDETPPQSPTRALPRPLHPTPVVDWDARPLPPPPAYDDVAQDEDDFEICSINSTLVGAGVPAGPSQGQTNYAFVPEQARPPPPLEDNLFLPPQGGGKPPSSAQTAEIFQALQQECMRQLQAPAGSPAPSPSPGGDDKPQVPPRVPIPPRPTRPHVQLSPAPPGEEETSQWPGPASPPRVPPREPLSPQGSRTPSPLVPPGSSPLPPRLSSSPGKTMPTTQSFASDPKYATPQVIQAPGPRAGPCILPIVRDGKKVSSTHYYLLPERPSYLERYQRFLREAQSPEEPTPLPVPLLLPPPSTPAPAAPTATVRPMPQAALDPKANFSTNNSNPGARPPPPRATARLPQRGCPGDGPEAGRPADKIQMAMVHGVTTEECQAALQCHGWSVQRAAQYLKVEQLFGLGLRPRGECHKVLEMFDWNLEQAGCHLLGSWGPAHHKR
PLK2, sequence (Q9NYY3 whole entry, the tested form may be a part): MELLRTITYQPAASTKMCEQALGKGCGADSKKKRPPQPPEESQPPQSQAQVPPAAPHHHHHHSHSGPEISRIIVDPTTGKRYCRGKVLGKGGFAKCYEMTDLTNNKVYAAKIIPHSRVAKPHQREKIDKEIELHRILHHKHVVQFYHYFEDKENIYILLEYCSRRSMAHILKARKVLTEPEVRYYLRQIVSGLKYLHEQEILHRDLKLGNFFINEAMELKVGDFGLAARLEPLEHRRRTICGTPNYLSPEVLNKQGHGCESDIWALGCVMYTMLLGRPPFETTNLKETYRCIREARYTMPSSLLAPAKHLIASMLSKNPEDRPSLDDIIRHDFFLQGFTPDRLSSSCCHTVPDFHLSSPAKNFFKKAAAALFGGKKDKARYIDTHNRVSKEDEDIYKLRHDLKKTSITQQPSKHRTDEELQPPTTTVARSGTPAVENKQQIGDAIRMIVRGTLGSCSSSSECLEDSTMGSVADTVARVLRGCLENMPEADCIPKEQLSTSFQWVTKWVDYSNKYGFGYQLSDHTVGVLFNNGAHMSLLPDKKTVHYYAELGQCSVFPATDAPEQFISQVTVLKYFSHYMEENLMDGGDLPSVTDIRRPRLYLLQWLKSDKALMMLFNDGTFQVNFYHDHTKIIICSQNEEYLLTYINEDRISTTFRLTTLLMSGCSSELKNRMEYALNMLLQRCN
PRKAA1, sequence (Q13131 whole entry, the tested form may be a part): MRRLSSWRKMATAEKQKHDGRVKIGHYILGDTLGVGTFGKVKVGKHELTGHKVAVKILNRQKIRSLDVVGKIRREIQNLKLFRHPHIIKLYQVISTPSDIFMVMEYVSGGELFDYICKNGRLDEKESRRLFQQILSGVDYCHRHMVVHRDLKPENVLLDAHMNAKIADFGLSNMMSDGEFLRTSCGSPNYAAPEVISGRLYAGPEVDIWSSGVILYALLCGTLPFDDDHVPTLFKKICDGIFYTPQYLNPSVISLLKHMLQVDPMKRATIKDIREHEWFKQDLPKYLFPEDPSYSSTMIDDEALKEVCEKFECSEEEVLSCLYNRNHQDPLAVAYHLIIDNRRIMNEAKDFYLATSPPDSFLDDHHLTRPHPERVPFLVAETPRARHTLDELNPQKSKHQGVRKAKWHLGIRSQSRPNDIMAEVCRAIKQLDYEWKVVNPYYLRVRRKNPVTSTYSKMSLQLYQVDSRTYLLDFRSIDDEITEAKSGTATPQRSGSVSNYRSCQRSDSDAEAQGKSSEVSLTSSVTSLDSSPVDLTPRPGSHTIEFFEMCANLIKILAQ
PRKAA1, sequence (P54619 whole entry partner, the tested form may be a part): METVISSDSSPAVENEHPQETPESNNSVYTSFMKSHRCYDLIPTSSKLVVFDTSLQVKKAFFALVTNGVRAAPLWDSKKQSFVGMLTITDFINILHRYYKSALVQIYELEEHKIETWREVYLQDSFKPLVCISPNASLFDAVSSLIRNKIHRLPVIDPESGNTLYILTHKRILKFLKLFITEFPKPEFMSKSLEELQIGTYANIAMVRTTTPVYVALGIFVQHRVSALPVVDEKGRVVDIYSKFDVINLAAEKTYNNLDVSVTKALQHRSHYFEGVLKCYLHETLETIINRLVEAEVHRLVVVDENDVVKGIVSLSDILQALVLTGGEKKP
PRKAA1, sequence (Q9Y478 whole entry partner, the tested form may be a part): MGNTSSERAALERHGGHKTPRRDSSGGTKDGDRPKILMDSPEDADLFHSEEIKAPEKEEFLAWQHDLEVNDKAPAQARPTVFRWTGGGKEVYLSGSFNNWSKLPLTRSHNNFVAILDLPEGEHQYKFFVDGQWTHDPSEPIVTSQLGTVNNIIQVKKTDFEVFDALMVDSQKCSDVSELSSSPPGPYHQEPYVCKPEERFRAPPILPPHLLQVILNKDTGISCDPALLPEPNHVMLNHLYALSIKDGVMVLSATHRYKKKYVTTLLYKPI
T1 sequence (P30530 26-894): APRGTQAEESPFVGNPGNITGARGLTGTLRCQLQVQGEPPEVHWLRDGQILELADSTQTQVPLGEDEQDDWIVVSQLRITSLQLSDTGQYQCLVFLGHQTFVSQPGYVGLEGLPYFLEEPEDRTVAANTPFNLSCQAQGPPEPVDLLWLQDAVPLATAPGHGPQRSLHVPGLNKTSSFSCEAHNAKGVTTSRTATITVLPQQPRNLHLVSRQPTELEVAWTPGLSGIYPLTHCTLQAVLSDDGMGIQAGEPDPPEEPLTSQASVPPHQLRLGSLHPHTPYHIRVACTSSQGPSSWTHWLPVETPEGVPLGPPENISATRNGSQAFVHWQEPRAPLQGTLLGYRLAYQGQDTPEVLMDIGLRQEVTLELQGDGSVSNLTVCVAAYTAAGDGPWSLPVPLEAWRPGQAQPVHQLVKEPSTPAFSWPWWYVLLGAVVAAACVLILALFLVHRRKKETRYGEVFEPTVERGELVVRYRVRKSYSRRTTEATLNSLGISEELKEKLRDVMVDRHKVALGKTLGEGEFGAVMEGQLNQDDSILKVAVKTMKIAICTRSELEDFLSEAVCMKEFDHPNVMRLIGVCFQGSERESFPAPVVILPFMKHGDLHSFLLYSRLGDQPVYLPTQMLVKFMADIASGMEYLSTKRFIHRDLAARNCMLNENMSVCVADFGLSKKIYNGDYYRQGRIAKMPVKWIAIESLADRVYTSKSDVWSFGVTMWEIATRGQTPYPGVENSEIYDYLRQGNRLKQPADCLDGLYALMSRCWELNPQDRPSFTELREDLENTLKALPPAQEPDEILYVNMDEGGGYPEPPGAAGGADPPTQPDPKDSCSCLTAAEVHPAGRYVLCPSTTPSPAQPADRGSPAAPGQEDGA

Turning to `C[C@@H](Oc1cc(-c2cnn(C3CCNCC3)c2)cnc1N)c1c(Cl)ccc(F)c1Cl` [crizotinib], the “Crizotinib % occupancy, 1 uM” value was determined as 68 ± 1.5% in [1], 85 ± 2.3% in assay [18] and 41 ± 5.6% in assay [19]. For the same compound, the inhibition at 1 µM in [2] was -6%; in assay [3], 4%; in assay [4], 13%; in assay [5], 0%; in [6], -4%; in assay [7], 0%. Moreover, the inhibition at 1 µM was 5% in assay [8]; -2% in [9]; 0% in assay [10]; -1% in assay [11]; -4% in assay [12]; 6% in assay [13]. Moreover, the inhibition at 1 µM was 4% in assay [14], 0% in [15], -5% in [16] and 1% in [17].
